Where two headings read alike, the source gives them in different places.
Assays:
[1] = cited from earlier work
[2] = system: stuttering; details: cited from earlier work
[3] = target: D1 receptors (Homo sapiens, UniProt P21728); assay: In vitro cAMP second messenger studies (adenylate cyclase); type: biochemical
Description: (§1) Activation of D1 receptors by dopamine and similar agonists stimulates the production of cyclic AMP (cAMP) via activation of adenylate cyclase. […] To ensure that there was no species specificity to the receptor binding profile, ecopipam's potency and selectivity were evaluated using cloned human receptors. […] Positron emission tomography (PET) studies using radiolabeled ecopipam have been conducted in healthy volunteers (Karlsson et al., Psychopharmacol., 121:300-308, 1995).

[4] = system: hD1/hD5 receptors; assay: Binding to cloned human receptors
Description: as §1

[5] = Open-label clinical study of safety, tolerability and activity in adult patients with Tourette's Syndrome; type: in vivo, human; details: adult TS patients, 50 mg/day Weeks 1-2, 100 mg/day Weeks 3-8
Description: A clinical program was carried out to test the safety, tolerability, and activity of ecopipam in adult patients with Tourette's Syndrome. A multicenter, open-label, nonrandomized study in 25 to 30 subjects was conducted to assess the activity and safety of ecopipam in subjects with TS. […] Assessment was performed at each visit. A follow-up visit was conducted via telephone at Week 10 to record any adverse events. Ecopipam was administered daily before bedtime at 50 mg/day for Week 1 and Week 2 and at 100 mg/day for Weeks 3-8. This treatment regimen is within the scope of the present invention; the compositions and various formulations described herein can be administered as described in this Example. The demographics of the study population were as follows: eighty three percent of the subjects were male (15 out of 18); fifteen were Caucasian, two were African-American, and one was an Asian/Pacific Islander. All subjects reported at least one adverse event (AE). […] These side effects are similar to those seen in other studies with ecopipam and were not unexpected.

[6] = system: D1/D5 receptors; details: rat brain homogenates, at low concentrations; cited from earlier work
[7] = target: T1, D1 receptor (Rattus norvegicus, UniProt P18901); details: rats, selective D1-agonist discriminative stimulus; cited from earlier work
T1 construct: In vivo studies on dopamine-agonist-induced behaviors; from tissue; host or cells: living rats (in vivo)

[8] = target: dopamine D1 receptors (Homo sapiens, UniProt P21728); details: radiolabeled ecopipam, healthy volunteers; cited from earlier work
[9] = known D2 antagonists, literature reports

T1 sequence (P18901 whole entry): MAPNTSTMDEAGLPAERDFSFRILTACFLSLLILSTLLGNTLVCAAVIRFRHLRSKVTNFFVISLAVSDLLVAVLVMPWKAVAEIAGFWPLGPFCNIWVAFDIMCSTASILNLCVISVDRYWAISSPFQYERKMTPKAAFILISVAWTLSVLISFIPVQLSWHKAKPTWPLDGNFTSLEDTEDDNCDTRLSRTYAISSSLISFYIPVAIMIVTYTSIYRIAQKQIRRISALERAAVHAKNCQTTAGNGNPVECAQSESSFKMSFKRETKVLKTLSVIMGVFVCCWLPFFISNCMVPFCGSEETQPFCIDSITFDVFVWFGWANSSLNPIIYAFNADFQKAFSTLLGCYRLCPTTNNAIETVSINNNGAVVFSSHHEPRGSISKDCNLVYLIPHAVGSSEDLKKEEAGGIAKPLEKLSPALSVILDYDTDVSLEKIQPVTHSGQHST
dopamine D1 receptors, sequence (P21728 whole entry): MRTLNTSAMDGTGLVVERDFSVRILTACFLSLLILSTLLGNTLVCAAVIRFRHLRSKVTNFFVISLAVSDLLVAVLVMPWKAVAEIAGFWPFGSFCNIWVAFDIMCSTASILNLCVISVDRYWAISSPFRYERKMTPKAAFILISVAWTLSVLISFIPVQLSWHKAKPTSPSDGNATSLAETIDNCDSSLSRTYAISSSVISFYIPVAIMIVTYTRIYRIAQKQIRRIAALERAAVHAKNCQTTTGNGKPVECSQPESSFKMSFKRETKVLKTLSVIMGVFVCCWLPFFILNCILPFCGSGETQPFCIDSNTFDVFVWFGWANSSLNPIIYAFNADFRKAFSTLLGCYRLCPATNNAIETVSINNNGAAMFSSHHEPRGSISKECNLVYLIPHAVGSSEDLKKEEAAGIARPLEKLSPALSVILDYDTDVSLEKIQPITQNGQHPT
D1 receptors, sequence (P21728 whole entry): as above

CN1CCc2cc(Cl)c(O)cc2[C@H]2c3ccccc3CC[C@@H]21 [Q=CH2, n=1, 7b(R): 7a(S)(−), X=Cl, Y=OH, 6,7,7a,8,9,13b-hexahydro-3-chloro-2-hydroxy-7-methyl-5H-benzo[d]naphtho[2,1-b]azepine]
CAR (MED) ([1]; po): 30 (po)

CN1CCc2cc(Cl)c(O)cc2[C@@H]2c3ccccc3CC[C@H]21 [Q=CH2, n=1, 7b(S):7a(R)(+), X=Cl, Y=OH, 6,7,7a,8,9,13b-hexahydro-3-chloro-2-hydroxy-7-methyl-5H-benzo[d]naphtho[2,1-b]azepine]
CAR (MED) ([1]; po): >30 (po)

COc1cc2c(cc1O)C1c3ccccc3CCC1N(C)CC2 (stereo not drawn) [Q=CH2, n=1, trans, X=CH3O, Y=OH, 6,7,7a,8,9,13b-hexahydro-2-hydroxy-3-methoxy-7-methyl-5H-benzo[d]naphtho[2,1-b]azepine]
CAR (MED) ([1]; po): 30 | CAR (MED) ([1]; sc): 0.3-1

CN1CCc2cc(Cl)c(N)cc2C2c3ccccc3CCC21 (stereo not drawn) [Q=CH2, n=1, trans, X=Cl, Y=NH2, 6,7,7a,8,9,13b-hexahydro-2-amino-3-chloro-7-methyl-5H-benzo[d]naphtho[2,1-b]azepine]
CAR (MED) ([1]; po): 3 (po)

CN1CCc2cc(Cl)c(O)cc2C2c3ccccc3CCC21 (stereo not drawn) [Q=CH2, n=1, trans, X=Cl, Y=OH, 6,7,7a,8,9,13b-hexahydro-3-chloro-2-hydroxy-7-methyl-5H-benzo[d]naphtho[2,1-b]azepine]
CAR (MED) ([1]; po): 30 | CAR (MED) ([1]; sc): 0.3

COc1cc2c(cc1O)C1c3ccccc3CCCC1N(C)CC2 (stereo not drawn) [Q=CH2, n=2, trans, X=CH3O, Y=OH, 2-hydroxy-3-methoxy-7-methyl-5,6,7,7a,8,9,10,14b-octahydro-benzo[d]benzo[3,4]cyclo-hepta[1,2-b]azepine]
CAR (MED) ([1]; sc): 10 (sc)

COc1cc2c(cc1O)CCN(C)C1CCCc3ccccc3C21 (stereo not drawn) [Q=CH2, n=2, trans, X=HO, Y=CH3O, 3-hydroxy-2-methoxy-7-methyl-5,6,7,7a,8,9,10,14b-octahydro-benzo[d]benzo[3,4]cyclo-hepta[1,2-b]azepine]
CAR (MED) ([1]; sc): 10 (sc)

CN1CC2c3ccccc3Oc3ccc(Cl)cc3C2C1 (stereo not shown) [asenapine]
reported effect on stuttering [2, 9]: induce stuttering

CN1CCc2cc(Cl)c(O)cc2[C@H]2c3ccccc3CC[C@@H]21 [ecopipam, (−)-trans-6,7,7a,8,9,13b-hexahydro-3-chloro-2-hydroxy-N-methyl-5H-benzo [d]-naphtho-[2,1-b]azepine]
action on cAMP second messenger [3]: antagonist | affinity for hD1/hD5 receptors [4]: high affinity | patients reporting AEs rated as severe ([5]; 18 subjects): Four | subjects reporting at least one adverse event ([5]; 18 subjects): All subjects | AEs rated as severe (kinds) [5]: sedation, insomnia, decreased appetite, hypersensitivity, cold sweat, and feeling jittery | AEs rated mild to moderate reported in more than three subjects [5]: fatigue, insomnia, nausea, sedation, headache, restlessness, anxiety, muscle twitching, dysphoria, and sleeplessness | changes in lab tests [5]: none were of clinical significance | changes in vital signs [5]: no clinically significant changes in vital signs | serious adverse events [5]: no serious adverse events | affinity for D1/D5 receptors [6]: high affinity | action on dopamine-agonist-induced behaviors [7]: selective D1 antagonist | binding in human brain (PET) [8]: specific binding in the human brain

COC(=O)C(c1ccccc1)C1CCCCN1 (stereo not shown) [methylphenidate]
reported effect on stuttering ([2]; D2-preferring dopamine agonist, literature report): relieve stuttering

Cc1cc2c(s1)Nc1ccccc1N=C2N1CCN(C)CC1 [olanzapine]
reported effect on stuttering [2, 9]: induce stuttering

Cc1nc2n(c(=O)c1CCN1CCC(c3noc4cc(F)ccc34)CC1)CCCC2 [risperidone]
reported effect on stuttering [2, 9]: induce stuttering

— patent publication US9949983B2, “Fused benzazepines for treatment of stuttering” (PSYADON PHARMACEUTICALS, INC., priority 2013, dated 2018)
